The numbers were not newly measured in patent publication US20180028686A1 (priority 2014, published 2018), which cites them from elsewhere.

The data set deals with RVFV.

Consider `NC(=O)c1ncn([C@@H]2O[C@H](CO)[C@@H](O)[C@H]2O)n1` [Ribavirin, ribavirin], for which the IC50 values result is reported as “low micromolar range”.
